Test results taken from patent publication US20050032863A1, “Method of treating or preventing central nervous system disorders with compounds having selectivity for the alpha 3 subunit of the benzodiazepine receptor” (priority 2003, published 2005).
pEC50: −log10 of the molar value. “Also recorded” adds a separate entry of the source.

Legend:
[1] = target: T1, recombinant rat α2β2γ2 GABAA receptors (Rattus norvegicus, UniProt P23576); experiment: Whole-cell patch-clamp, modulation of GABA (EC20)-induced currents in transfected HEK 293 cells, α2β2γ2; type: cell-based; settings: α2β2γ2
T1 construct: expressed in transfected cells; host or cells: HEK 293
Description: (§1) For electrophysiological recording HEK-293 cells were passaged and replated on 12-mm glass coverslips located in 9.6-cm plastic dishes filled with 10 ml of Minimum Essential Medium (MEM, Gibco) supplemented with 158 mg/l sodium bicarbonate, 2 mM glutamine (Gibco), 100 U/ml penicillin-streptomycin (Gibco), and 10% foetal calf serum (Gibco). Cultures were maintained at 37° C. in a humidified […]/5% CO2 atmosphere for 2-3 days.
(§2) Transfection with recombinant rat GABAA receptors was carried out as described in detail (Korpi and Lüddens, 1993, Lüddens and Korpi, 1995b). Briefly, HEK 293 cells were transfected in triple combinations using the phosphate precipitation method with rat GABAA receptor cDNAs in eukaryotic expression vectors (Pritchett, 1990) for the α, β and γ subunits. For optimal receptor expression, final concentrations (μg vector DNA per 9.6 cm tissue culture plate) were: α1, 2; α2 4.8; α3, 1.2; α4, 10; α5, 0.8; β2, 0.4; and γ2S, 0.3. The γ2S variant is abbreviated γ2 in the remainder of the text. To identify transfected cells all subunit combinations were co-transfected with 1 μg per plate of pNI-EGFP.
(§3) Two days after transfection single coverslips containing HEK 293 cells were placed in a recording chamber mounted on the movable stage of a fluorescence microscope (Olympus IX70) and perfused with a defined saline solution containing (in mM): 130 NaCl, 5.4 KCl, 2 CaCl2, 2 MgSO4, 10 glucose, 5 sucrose, and 10 HEPES (free acid), pH adjusted to 7.35 with about 35 mM NaOH. Transfected cells were identified by their green fluorescence due to the expression of the pNI-EGFP vector and ligand-mediated membrane currents of these cells were studied in the whole-cell configuration of the patch-clamp technique (Hamil et al., 1981). Patch-clamp pipettes were pulled from hard borosilicate capillary glass (0.5 mm ID, 1.5 mm OD, Vitrex, Science Products GmbH, Hofheim, Germany) using a horizontal puller (Sutter Instruments, CA, Model P-97) in a multi-stage process.
Seal resistances >1 GΩ were routinely obtained by applying gentle suction to the pipettes. Membrane rupture was monitored electrically as an increase in capacity. Pipette capacitance, membrane capacitance, and series resistance were electronically compensated to achieve minimal capacitative transients. A series resistance compensation of >60% was regularly used.
In all cells recorded the presence of the γ2 subunit in the heteropentamere was monitored by the application of 1 μM zolpidem plus the EC20 of GABA before testing the experimental drugs.
Responses of the cells were recorded by a patch-clamp amplifier (EPC-8, HEKA-Electronic, Lambrecht, Germany) in conjunction with a standard personal computer and the pClamp 8.1 software package (Axon Instruments, Foster City, Calif.). The standard holding-potential for the cells was −40 mV. Whole cell currents were low-pass filtered by an eight-pole Bessel filter at 5 or 3 kHz before being digitised by a Digidata 1322A interface (Axon Instruments, Foster City, Calif.) and recorded by the computer at a sampling rate of at least […].
Efficacy, potency, and GABAA receptor a subunit specificity of the new compound ELB139 was tested with the whole cell configuration of the patch-clamp technique by applying increasing drug concentration together with GABA of the approximate EC20 on green fluorescing cells. BZ binding site specificity of the new compound was tested on the same cells in an identical experimental setting with additionally applying 10 μM Ro15-1788.

[2] = target: T2, recombinant rat α4β2γ2 GABAA receptors (Rattus norvegicus, UniProt P28471); experiment: Whole-cell patch-clamp, modulation of GABA (EC20)-induced currents in transfected HEK 293 cells, α4β2γ2; type: cell-based
T2 construct: expressed in transfected cells; host or cells: HEK 293
Description: as §1, §2
as §3, with “Patch-clamp pipettes were pulled from hard borosilicate capillary glass (0.5 mm ID, 1.5 mm OD, Vitrex, Science Products GmbH, Hofheim, Germany) using a horizontal puller (Sutter Instruments, CA, Model P-97) in a multi-stage process.” left out
Seal resistances >1 GΩ were routinely obtained by applying gentle suction to the pipettes. Membrane rupture was monitored electrically as an increase in capacity. […]
In all cells recorded the presence of the γ2 subunit in the heteropentamere was monitored by the application of 1 μM zolpidem plus the EC20 of GABA before testing the experimental drugs. […]

[3] = test system: dt^sz mutant Syrian golden hamsters; experiment: Genetic hamster model of paroxysmal dystonia, triple stimulation; type: in vivo, Syrian golden hamster
Description: Drug testing was performed at the maximal sensitivity of the hamsters for induction of dystonic attacks, i.e. between 30 and 40 days of age. Dystonic attacks were induced by a triple stimulation technique: The hamsters were taken from their home cage and placed on a balance (to determine body weight), were then injected i.p. with saline (control) or drug, and immediately placed individually in a new and empty plastic cage. Dystonic attacks started within a few minutes after placing the hamsters in the new plastic cage.
The final stage persisted for two to five hours, but rapid recovery occurred thereafter.
A first group of animals (n=8) was tested for ocurrence and severity of dystonic attacks at the age of 32-33 days after administration of vehicle (i.p.) as well as after performing the triple stimulation procedure as described above. Two or three days later, the same animals received E131-00139 i.p. and were again observed for 3 hours and again 2-3 days later the animals were re-tested after vehicle administration to serve as post dose control. […] The first stack represents the first hour of observation statring with drug administration, the second stack of bars represents the second hour of observation and the third stack the third hour.
The first (open) bar represents the control response of the animals recorded 2-3 days prior to the drug test, the black bar represents the results obtained after drug administration and the third (gray) bar represents the post drug control tested 2-3 days after the drug administration. The pre-and post test was used to exclude that a reduction of severity of stages was only due to a reduction in sensitivity for the induction of dystonic attacks is age dependent.

serotonine transporters = experiment: Uptake of serotonine in a synaptosomal preparation; type: biochemical

T1 sequence (P23576 29-451): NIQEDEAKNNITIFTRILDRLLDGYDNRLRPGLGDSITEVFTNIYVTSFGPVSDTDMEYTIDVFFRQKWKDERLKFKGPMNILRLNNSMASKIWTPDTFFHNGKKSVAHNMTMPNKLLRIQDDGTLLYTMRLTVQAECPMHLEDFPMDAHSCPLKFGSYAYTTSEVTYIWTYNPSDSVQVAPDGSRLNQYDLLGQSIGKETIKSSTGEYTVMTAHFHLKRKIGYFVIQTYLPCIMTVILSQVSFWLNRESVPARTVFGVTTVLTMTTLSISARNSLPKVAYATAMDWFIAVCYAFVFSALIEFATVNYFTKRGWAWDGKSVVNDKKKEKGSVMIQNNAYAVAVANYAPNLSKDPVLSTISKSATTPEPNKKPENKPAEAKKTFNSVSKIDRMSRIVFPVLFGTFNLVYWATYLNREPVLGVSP
T2 sequence (P28471 36-552): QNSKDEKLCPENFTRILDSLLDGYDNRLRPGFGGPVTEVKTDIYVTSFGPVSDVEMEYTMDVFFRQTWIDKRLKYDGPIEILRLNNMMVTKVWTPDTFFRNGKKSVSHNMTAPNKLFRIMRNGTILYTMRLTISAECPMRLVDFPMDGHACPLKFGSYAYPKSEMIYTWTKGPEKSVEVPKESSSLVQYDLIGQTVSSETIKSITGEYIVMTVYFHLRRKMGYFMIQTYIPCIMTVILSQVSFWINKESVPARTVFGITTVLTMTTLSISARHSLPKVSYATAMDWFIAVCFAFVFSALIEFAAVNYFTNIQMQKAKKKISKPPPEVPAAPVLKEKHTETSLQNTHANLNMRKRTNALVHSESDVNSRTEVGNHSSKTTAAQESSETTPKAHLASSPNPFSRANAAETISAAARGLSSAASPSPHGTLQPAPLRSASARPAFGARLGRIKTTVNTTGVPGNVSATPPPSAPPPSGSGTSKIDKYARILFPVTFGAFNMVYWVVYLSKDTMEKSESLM

O=C1N=C(N2CCCCC2)CN1c1ccc(Cl)cc1 [ELB139, 1-(4-chlorophenyl)-4-piperidinoimidazolin-2-one]
modulation of GABA-induced currents (in words) ([1]; ELB139 0.01-30 μM): failed to evoke agonistic or inverse agonistic modulation; also recorded: no agonistic effect; also recorded: not at all active
pEC50 ([1]; applied with approximate GABA EC20, read-out: EC50 (ELB139)): < 4.52
modulation of GABA-induced currents (in words) ([2]; α4-containing receptors, diazepam up to 1 μM, ELB139 at all concentrations tested): unaffected; also recorded: not active
pEC50 ([2]; α4β2γ2, applied with approximate GABA EC20, read-out: EC50 (ELB139)): < 4.52
antidystonic activity ([3]; 5 mg/kg i.p.): still a significant antidystonic activity was present
tolerability and sedation ([3]; 10 mg/kg i.p.): well tolerated and no sedation was observed
severity of the dystonic attack ([3]; 10 mg/kg i.p., total observation period 3 h): significantly reduced
uptake of serotonine (serotonine transporters): no effect
